Here are results for one substance from patent publication US20250129370A1, “METHOD FOR REDUCING HEPATIC TRIGLYCERIDES” (ADAERATA, LIMITED PARTNERSHIP, priority 2022, published 2025).

One data set has as its system human PC7. Nature of the data set: Western blot of overexpressed PC7 protein in Huh7 cells co-transfected with miRNA vectors. Format: cell-based. The method, then: In the next step, the effect of miR-125a-5p on PC7 function was determined. First, the miR-125a-5p-overexpressing vector and its related mock plasmids were co-transfected with the pIRES vector (Invitrogen, USA), containing the full length of cDNA encoding the PCSK7 mRNA with the complete 3′-UTR in Huh7 cells. The western blot analysis was performed 48 hours after transfection. Thereafter, the impact of miR-125a-5p on the enzymatic function of PC7 was assessed by co-transfecting Huh7 cells with the miR-125a-5p-overexpressing vector, with that coding for the full length of PCSK7, and a plasmid encoding hTfR1 (Guillemot et al., 2013; Durand et al., 2020). […]
Subsequently, proteins were isolated with an ice-cold RIPA buffer (1×), comprising 50 mM of Tris hydrochloride (pH 8), 150 mM of sodium chloride, 0.1% sodium dodecyl sulfate, 1% Nonidet P40, 0.25% sodium deoxycholate, and a cocktail of protease inhibitors (Roche, Oakville, ON, Canada). […] Both PC7 and TfR1 were C-terminally tagged with V5 and detected with a V5-monoclonal antibody (Invitrogen) and membranes were incubated with appropriate primary and secondary antibodies, as reported (Guillemot et al., 2013). Subsequently, immunoreactive bands (the signal) were visualized with an enhanced chemiluminescent reaction kit (Bio-Rad, USA) and recorded via chemiluminescence. […]

Data set [1] deals with mutated form of PCSK7 3′-UTR. Nature of the data set: Luciferase reporter assay, miRNA target site-deleted PCSK7 3′-UTR, HEK293T cells. The class given is cell-based, human. The text has this: The interactions between the miRNAs and their probable targets on PCSK7 were explored by cloning the potential target regions in psiCHECK-2™ (Promega, USA), a luciferase reporter vector. In psiCHECK-2™, hRluc, the Renilla luciferase gene, is located upstream of the target regions of interest cloned into the psiCHECK-2™ vector downstream of the Renilla gene. The region corresponding to the 3′-UTR of PCSK7 (926-nt sequences in length) that constituted the predicted miRNA response elements was PCR-amplified and cloned downstream of the Renilla luciferase gene in the psiCHECK-2™ vector (Promega, USA). For the confirmation of whether miRNA response elements (miRNA target sites) on the 3′-UTR of PCSK7 were active and had direct interactions with the miRNAs, different mutants (plasmids) were constructed via splicing by over-hang-extension (SOEing) PCR. For miR-125a-5p and miR-143-3p, each of which has two miRNA response elements on PCSK7 3′-UTR, three different mutant constructs were built. Two constructs were made by deleting a putative miRNA target site, and the third one was made by omitting both putative miRNA target sites in the 3′-UTR sequence of PCSK7. In the miR-409-3p mutant construct, a putative miRNA target site was deleted from the 3′-UTR sequence.
The HEK293T cells were co-transfected through the application of the wild-type psiCHECK-2, the wild-type PCSK7 3′-UTR, the mutant PCSK7 3′-UTR, and the miR-overexpressing vectors so that the direct interactions of the nominated miRNAs with PCSK7 3′-UTR could be investigated. In brief, 150 ng of the wild-type or mutated 3′-UTR constructs and 300 ng of the miRNA-expressing vectors were co-transfected in HEK293T-cultured 48-well plates using FuGENE™ (Invitrogen, USA). Additionally, the psiCHECK-2 and pEGFP-C1 mock vectors were transfected and utilized as controls for luciferase assay and transfection, respectively. Transfection efficiency was monitored by fluorescent microscopy (Nikon TE2000S, Japan) 36 hours following the procedure.
The PsiCHECK-2 reporter construct plasmid contained the Renilla luciferase gene upstream of PCSK7 3′-UTR and an independent firefly luciferase gene as an internal control for normalization. Forty-eight hours after HEK293T co-transfection, the luciferase reporter assay was carried out employing the Dual-Luciferase Reporter Assay System (Promega, USA) with a luminometer (Titertek-Berthold, Germany) in accordance with the manufacturer's protocol. Each sample was performed in triplicate, and the experiment was repeated at least three biological times. In short, a lysis buffer was added to each well after the removal of the media of the cell. Then, LARII Reagent was added, and after 20 minutes, the firefly luciferase activity was measured as a control. Afterward, Renilla activity was determined using Stop & Glo Reagent. The relative luciferase activity was calculated using the following formula: ΔFold Activity of Luciferase (Renilla/Firefly)=Average Renilla/Firefly from Samples A/B.
A luciferase reporter assay further confirmed that miR-125a-5p, miR-143-3p, and miR-409-3p directly targeted the 3′-UTR of the PCSK7 transcript since the negative regulatory effect was lost upon the deletion of the miRNA target sites (miR-125a-5p, miR-143-3p, and miR-409-3p) on the 3′-UTR of the PCSK7 reporter plasmid (FIGS. 28A-B). In this regard, three different mutated miR plasmids were constructed for both miR-125a-5p and miR-143-3p. Single-target sites of each miRNA were omitted individually in two separate plasmids, and the two putative binding sites of the miRNAs were deleted in the other plasmid.
(In general: In a reporter assay the amount or activity of a reporter protein is the signal.)

In the case of “miR-125a-5p: miRNA targeting PCSK7 3′-UTR and exons 14 and 15, overexpressed from pEGFP-C1 precursor vector (UCCCUGAGACCCUUUAACCUGUGA; miRNA expressed from a pEGFP-C1 precursor vector, further chemistry not given here)”, the “fall of overexpressed PC7 protein levels” value in the data set with human PC7 (Huh7, 48 hours post-transfection, vs mock (pEGFP-C1) and miR-224-5p controls) was approximately 80%. Besides, the “decrease of PC7 protein levels” value in the data set on human PC7 (Huh7, PC7:miR-125a-5p DNA ratios 1:2, 1:3 and 1:5, all three ratios) is on record as more than 80%. For the same substance, the relative luciferase activity result is reported as “still decreased” in data set [1] (Mut-a, deletion of the first target site); “failed to significantly decrease” in data set [1] (Mut-a,b, deletion of both miRNA target sites); “still decreased” in data set [1] (Mut-b, deletion of the second target site).
